Source: patent publication US7759345B2, “Antitumoral derivatives of ET-743” (priority 2001, dated 2010)

Key:
HT-29 = assay: Inhibition of cells growth by colorimetric assay (SRB), HT-29; assay type: cell-based; details: for GI50 / LC50 (concentration for 50% cell killing): Homo sapiens, HT-29, 48 h; for GI50 / HT-29 TGI: SRB assay, 48 hours exposure; for GI50: read-out: HT-29 GI50; for LC50 (concentration for 50% cell killing): read-out: HT-29 LC50, SRB assay, 48 hours exposure
Procedure, shortened: (§1)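 Compound in DMSO/EtOH/PBS vehicle was applied at 10 to 10^−8 μg/ml to attached cells (5×10^3/well, 18 h) for 48 h. Cells were then fixed with cold TCA and stained with 0.4% SRB in 1% acetic acid.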

LoVo-Dox = assay: Inhibition of cells growth by colorimetric assay (SRB), LoVo-Dox; assay type: cell-based; details: for GI50 / CC50: Homo sapiens, 48 h; for GI50 / LOVO-DOX TGI: SRB assay, 48 hours exposure; for GI50: read-out: LOVO-DOX GI50; for CC50: read-out: LOVO-DOX LC50, SRB assay, 48 hours exposure
Procedure, shortened: as §1

SK-OV-3 = assay: Inhibition of cells growth by colorimetric assay (SRB), SK-OV-3; assay type: cell-based; details: for GI50 / LC50: Homo sapiens, SK-OV-3, 48 h; for GI50 / SK-OV3 TGI: SRB assay, 48 hours exposure; for GI50: read-out: SK-OV3 GI50; for LC50: read-out: SK-OV3 LC50, SRB assay, 48 hours exposure
Procedure, shortened: as §1

LNCaP = assay: Inhibition of cells growth by colorimetric assay (SRB), LNCaP; assay type: cell-based; details: for GI50 / CC50: Homo sapiens, LNCaP, 48 h; for GI50: read-out: LNCAP GI50, SRB assay, 48 hours exposure; for CC50: read-out: LNCAP LC50, SRB assay, 48 hours exposure; for LNCAP TGI: SRB assay, 48 hours exposure
Procedure, shortened: as §1

SK-BR-3 = assay: Inhibition of cells growth by colorimetric assay (SRB), SK-BR-3; assay type: cell-based; details: for GI50 / CC50: Homo sapiens, SK-BR-3, 48 h; for GI50 / SK-BR3 TGI: SRB assay, 48 hours exposure; for GI50: read-out: SK-BR3 GI50; for CC50: read-out: SK-BR3 LC50, SRB assay, 48 hours exposure
Procedure, shortened: as §1

IGROV-1 = assay: Inhibition of cells growth by colorimetric assay (SRB), IGROV-1; assay type: cell-based; details: for GI50 / CC50: Homo sapiens, IGROV-1, 48 h; for GI50 / IGROV TGI: SRB assay, 48 hours exposure; for GI50: read-out: IGROV GI50; for CC50: read-out: IGROV LC50, SRB assay, 48 hours exposure
Procedure, shortened: as §1

LoVo = assay: Inhibition of cells growth by colorimetric assay (SRB), LoVo; assay type: cell-based; details: for GI50 / LC50 (concentration for 50% cell killing): Homo sapiens, LoVo, 48 h; for GI50 / LOVO TGI: SRB assay, 48 hours exposure; for GI50: read-out: LOVO GI50; for LC50 (concentration for 50% cell killing): read-out: LOVO LC50, SRB assay, 48 hours exposure
Procedure, shortened: as §1

A-549 = assay: Inhibition of cells growth by colorimetric assay (SRB), A-549; assay type: cell-based; details: for GI50 / LC50 (concentration for 50% cell killing): Homo sapiens, A549, 48 h; for GI50 / A-549 TGI: SRB assay, 48 hours exposure; for GI50: read-out: A-549 GI50; for LC50 (concentration for 50% cell killing): read-out: A-549 LC50, SRB assay, 48 hours exposure
Procedure, shortened: as §1

SK-MEL-28 = assay: Inhibition of cells growth by colorimetric assay (SRB), SK-MEL-28; assay type: cell-based; details: for GI50 / CC50: Homo sapiens, SK-MEL-28, 48 h; for GI50 / MEL-28 TGI: SRB assay, 48 hours exposure; for GI50: read-out: MEL-28 GI50; for CC50: read-out: MEL-28 LC50, SRB assay, 48 hours exposure
Procedure, shortened: as §1

PANC-1 = assay: Inhibition of cells growth by colorimetric assay (SRB), PANC-1; assay type: cell-based; details: for GI50 / LC50 (concentration for 50% net cell kill): Homo sapiens, PANC-1, 48 h; for GI50 / PANC-1 TGI: SRB assay, 48 hours exposure; for GI50: read-out: PANC-1 GI50; for LC50 (concentration for 50% net cell kill): read-out: PANC-1 LC50, SRB assay, 48 hours exposure
Procedure, shortened: as §1

IGROV-ET = assay: Inhibition of cells growth by colorimetric assay (SRB), IGROV-ET; assay type: cell-based; details: for GI50 / CC50: Homo sapiens, 48 h; for GI50 / IGROV-ET TGI: SRB assay, 48 hours exposure; for GI50: read-out: IGROV-ET GI50; for CC50: read-out: IGROV-ET LC50, SRB assay, 48 hours exposure
Procedure, shortened: as §1

K-562 = assay: Inhibition of cells growth by colorimetric assay (SRB), K-562; assay type: cell-based; details: for GI50 / LC50 (50% cell killing): Homo sapiens, K562, 48 h; for GI50 / K-562 TGI: SRB assay, 48 hours exposure; for GI50: read-out: K-562 GI50; for LC50 (50% cell killing): read-out: K-562 LC50, SRB assay, 48 hours exposure
Procedure, shortened: as §1

HMEC1 = assay: Inhibition of cells growth by colorimetric assay (SRB), HMEC1; assay type: cell-based; details: for GI50 / LC50: Homo sapiens, HMEC-1, 48 h; for GI50 / HMEC-1 TGI: SRB assay, 48 hours exposure; for GI50: read-out: HMEC-1 GI50; for LC50: read-out: HMEC-1 LC50, SRB assay, 48 hours exposure
Procedure, shortened: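 Human cancer and endothelial lines are seeded at 5×10^3 cells per well and, after 18 h, treated for 48 h with compound dissolved in DMSO/EtOH/PBS (0.5:0.5:99) at 10 to 10^−8 μg/ml. Cell mass is quantified by SRB staining (OD 490 nm), and growth inhibition, total growth inhibition and cell kill are calculated from triplicate wells.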

DU-145 = assay: Inhibition of cells growth by colorimetric assay (SRB), DU-145; assay type: cell-based; details: for GI50 / CC50: Homo sapiens, DU-145, 48 h; for GI50 / DU-145 TGI: SRB assay, 48 hours exposure; for GI50: read-out: DU-145 GI50; for CC50: read-out: DU-145 LC50, SRB assay, 48 hours exposure
Procedure, shortened: as §1

Description for Heart: (§2) Toxicity was asssessed by the methods reported in Toxicology in Vitro, 15 (2001) 571-577, J. Luber Narod et al.: “Evaluation of the use of in vitro methodolodies as tools for screening new compounds for potential in vivo toxicity”.
Description for Kidney: as §2
Description for Liver: as §2
Description for Myelo: as §2
Description for Skeletal: as §2

Structure (SMILES): COc1cc2c(cc1O)CCN[C@]21CS[C@@H]2c3c(OC(=O)CCCCC4SCC5NC(=O)NC54)c(C)c4c(c3[C@H](COC1=O)N1C2[C@H]2c3c(cc(C)c(OC)c3O)C[C@@H]([C@@H]1O)N2C)OCO4 (stereo partly shown) [Compound 171]
- GI50 (HT-29): 0.00391 µM
- LC50 (concentration for 50% cell killing) (HT-29): 10.6 µM
- HT-29 TGI (HT-29): 3.24E-08
- GI50 (LoVo-Dox): 0.938 µM
- CC50 (LoVo-Dox): 10.6 µM
- LOVO-DOX TGI (LoVo-Dox): 1.23E-06
- GI50 (SK-OV-3): 0.00689 µM
- LC50 (SK-OV-3): 10.6 µM
- SK-OV3 TGI (SK-OV-3): 9.73E-08
- GI50 (LNCaP): 0.00166 µM
- CC50 (LNCaP): 0.00594 µM
- LNCAP TGI (LNCaP): 3.14E-09
- Toxicity Data Kidney (Kidney): 2.70E-08
- GI50 (SK-BR-3): 0.00247 µM
- CC50 (SK-BR-3): 0.0375 µM
- SK-BR3 TGI (SK-BR-3): 6.54E-09
- Toxicity Data Myelo (Myelo): 1.37E-07
- GI50 (IGROV-1): 0.00193 µM
- CC50 (IGROV-1): 0.0088 µM
- IGROV TGI (IGROV-1): 4.12E-09
- GI50 (LoVo): 0.0237 µM
- LC50 (concentration for 50% cell killing) (LoVo): 10.6 µM
- LOVO TGI (LoVo): 7.66E-08
- Toxicity Data Skeletal (Skeletal): 3.58E-08
- GI50 (A-549): 0.0228 µM
- LC50 (concentration for 50% cell killing) (A-549): 0.096 µM
- A-549 TGI (A-549): 4.68E-08
- GI50 (SK-MEL-28): 0.00565 µM
- CC50 (SK-MEL-28): 0.102 µM
- MEL-28 TGI (SK-MEL-28): 2.33E-08
- GI50 (PANC-1): 0.0073 µM
- LC50 (concentration for 50% net cell kill) (PANC-1): 1.06 µM
- PANC-1 TGI (PANC-1): 4.63E-08
- GI50 (IGROV-ET): 0.225 µM
- CC50 (IGROV-ET): 10.6 µM
- IGROV-ET TGI (IGROV-ET): 7.08E-07
- Toxicity Data Heart (Heart): 3.13E-08
- GI50 (K-562): 0.000243 µM
- LC50 (50% cell killing) (K-562): 0.000982 µM
- K-562 TGI (K-562): 4.88E-10
- GI50 (HMEC1): 0.00294 µM
- LC50 (HMEC1): 10.6 µM
- HMEC-1 TGI (HMEC1): 6.90E-09
- Toxicity Data Liver (Liver): 8.37E-08
- GI50 (DU-145): 0.00505 µM
- CC50 (DU-145): 10.6 µM
- DU-145 TGI (DU-145): 2.96E-08

Structure (SMILES): COc1cc2c(cc1O)CCN[C@]21CS[C@@H]2c3c(OC(=O)CCCCC4SCC5NC(=O)NC54)c(C)c4c(c3[C@H](COC1=O)N1C2[C@H]2c3c(cc(C)c(OC)c3OC(=O)CCCCC3SCC5NC(=O)NC53)C[C@@H]([C@@H]1O)N2C)OCO4 (stereo partly shown) [Compound 172]
- GI50 (HT-29): 0.0388 µM
- LC50 (concentration for 50% cell killing) (HT-29): 8.53 µM
- HT-29 TGI (HT-29): 1.43E-07
- GI50 (LoVo-Dox): 2.88 µM
- CC50 (LoVo-Dox): 8.53 µM
- LOVO-DOX TGI (LoVo-Dox): 7.23E-06
- GI50 (SK-OV-3): 0.219 µM
- LC50 (SK-OV-3): 0.853 µM
- SK-OV3 TGI (SK-OV-3): 5.09E-07
- GI50 (LNCaP): 0.0277 µM
- CC50 (LNCaP): 0.0668 µM
- LNCAP TGI (LNCaP): 4.31E-08
- Toxicity Data Kidney (Kidney): 7.93E-07
- GI50 (SK-BR-3): 0.0502 µM
- CC50 (SK-BR-3): 0.785 µM
- SK-BR3 TGI (SK-BR-3): 2.00E-07
- Toxicity Data Myelo (Myelo): 3.81E-07
- GI50 (IGROV-1): 0.0142 µM
- CC50 (IGROV-1): 0.0636 µM
- IGROV TGI (IGROV-1): 3.01E-08
- GI50 (LoVo): 0.226 µM
- LC50 (concentration for 50% cell killing) (LoVo): 0.853 µM
- LOVO TGI (LoVo): 4.61E-07
- Toxicity Data Skeletal (Skeletal): 8.53E-07
- GI50 (A-549): 0.241 µM
- LC50 (concentration for 50% cell killing) (A-549): 0.853 µM
- A-549 TGI (A-549): 4.59E-07
- GI50 (SK-MEL-28): 0.00131 µM
- CC50 (SK-MEL-28): 0.00797 µM
- MEL-28 TGI (SK-MEL-28): 3.22E-09
- GI50 (PANC-1): 0.326 µM
- LC50 (concentration for 50% net cell kill) (PANC-1): 8.53 µM
- PANC-1 TGI (PANC-1): 8.34E-07
- GI50 (IGROV-ET): 0.165 µM
- CC50 (IGROV-ET): 0.853 µM
- IGROV-ET TGI (IGROV-ET): 4.18E-07
- Toxicity Data Heart (Heart): 7.52E-07
- GI50 (K-562): 0.00603 µM
- LC50 (50% cell killing) (K-562): 0.0353 µM
- K-562 TGI (K-562): 9.98E-09
- GI50 (HMEC1): 0.432 µM
- LC50 (HMEC1): 8.53 µM
- HMEC-1 TGI (HMEC1): 8.53E-06
- Toxicity Data Liver (Liver): 2.47E-07
- GI50 (DU-145): 0.0379 µM
- CC50 (DU-145): 8.53 µM
- DU-145 TGI (DU-145): 8.31E-08
